Species: Rattus norvegicus
Assay: DrugMatrix - Regimen: Daily Repeat
Assay type: toxicity, organism-based, Sprague-Dawley
Design: regimen Daily Repeat, gender Male, age 6-8 weeks
Settings: in vivo, po, 1200 mg/kg, route oral GAVAGE, dose level High, vehicle .5 % CMC; for ABSOLUTE BASOPHIL / ABSOLUTE EOSINOPHIL / ABSOLUTE LYMPHOCYTE / ABSOLUTE MONOCYTE / ABSOLUTE SEGMENTED NEUTROPHIL / BASOPHIL / EOSINOPHIL / ERYTHROCYTE COUNT / HEMATOCRIT / HEMOGLOBIN / LEUKOCYTE COUNT / LYMPHOCYTE / MEAN CORPUSCULAR HEMOGLOBIN / MEAN CORPUSCULAR HEMOGLOBIN CONCENTRATION / MEAN CORPUSCULAR VOLUME / MONOCYTE / NEUTROPHIL / NUCLEATED RED BLOOD CELLS / PLATELET COUNT: tissue Blood; for ALANINE AMINOTRANSFERASE / ALBUMIN / ALKALINE PHOSPHATASE / ASPARTATE AMINOTRANSFERASE / BLOOD UREA NITROGEN / CARBON DIOXIDE / CHLORIDE / CHOLESTEROL / CREATINE PHOSPHOKINASE / CREATININE / GLUCOSE / LACTATE DEHYDROGENASE / LIPASE / PHOSPHORUS / POTASSIUM / SODIUM / TOTAL BILIRUBIN / TOTAL PROTEIN / URIC ACID: tissue Plasma

Structure (SMILES): O=C(C1CCCCC1)N1CC(=O)N2CCc3ccccc3C2C1 (stereo unspecified) [PRAZIQUANTEL]
- ABSOLUTE BASOPHIL (72 h, time 3 day): 0 CELLS/uL
- ABSOLUTE EOSINOPHIL (72 h, time 3 day): 48 CELLS/uL
- ABSOLUTE LYMPHOCYTE (72 h, time 3 day): 14636 CELLS/uL
- ABSOLUTE MONOCYTE (72 h, time 3 day): 440 CELLS/uL
- ABSOLUTE SEGMENTED NEUTROPHIL (72 h, time 3 day): 1476 CELLS/uL
- BASOPHIL (72 h, time 3 day): 0%
- EOSINOPHIL (72 h, time 3 day): 0.33%
- ERYTHROCYTE COUNT (72 h, time 3 day): 6.1 x10E6/uL
- HEMATOCRIT (72 h, time 3 day): 37.8%
- HEMOGLOBIN (72 h, time 3 day): 14.07 G/DL
- LEUKOCYTE COUNT (72 h, time 3 day): 16.6 x10E3/uL
- LYMPHOCYTE (72 h, time 3 day): 88%
- MEAN CORPUSCULAR HEMOGLOBIN (72 h, time 3 day): 23.1 pg
- MEAN CORPUSCULAR HEMOGLOBIN CONCENTRATION (72 h, time 3 day): 37.23 G/DL
- MEAN CORPUSCULAR VOLUME (72 h, time 3 day): 62.03 fL
- MONOCYTE (72 h, time 3 day): 2.67%
- NEUTROPHIL (72 h, time 3 day): 9%
- NUCLEATED RED BLOOD CELLS (72 h, time 3 day): 0 /100WBC
- PLATELET COUNT (72 h, time 3 day): 1207 x10E3/uL
- ALANINE AMINOTRANSFERASE (72 h, time 3 day): 78.33 u/L
- ALBUMIN (72 h, time 3 day): 4.17 G/DL
- ALKALINE PHOSPHATASE (72 h, time 3 day): 420.67 u/L
- ASPARTATE AMINOTRANSFERASE (72 h, time 3 day): 106 u/L
- BLOOD UREA NITROGEN (72 h, time 3 day): 16.67 mg/dL
- CARBON DIOXIDE (72 h, time 3 day): 21.67 mmol/L
- CHLORIDE (72 h, time 3 day): 106 MEQ/L
- CHOLESTEROL (72 h, time 3 day): 113 mg/dL
- CREATINE PHOSPHOKINASE (72 h, time 3 day): 468 u/L
- CREATININE (72 h, time 3 day): 0.27 mg/dL
- GLUCOSE (72 h, time 3 day): 155.33 mg/dL
- LACTATE DEHYDROGENASE (72 h, time 3 day): 155.67 u/L
- LIPASE (72 h, time 3 day): 12.33 u/L
- PHOSPHORUS (72 h, time 3 day): 12.53 mg/dL
- POTASSIUM (72 h, time 3 day): 6.11 MEQ/L
- SODIUM (72 h, time 3 day): 146.03 MEQ/L
- TOTAL BILIRUBIN (72 h, time 3 day): 0.17 mg/dL
- TOTAL PROTEIN (72 h, time 3 day): 5.9 G/DL
- URIC ACID (72 h, time 3 day): 1.8 mg/dL
- ABSOLUTE BASOPHIL (120 h, time 5 day): 0 CELLS/uL
- ABSOLUTE EOSINOPHIL (120 h, time 5 day): 0 CELLS/uL
- ABSOLUTE LYMPHOCYTE (120 h, time 5 day): 15049.33 CELLS/uL
- ABSOLUTE MONOCYTE (120 h, time 5 day): 624 CELLS/uL
- ABSOLUTE SEGMENTED NEUTROPHIL (120 h, time 5 day): 1126.67 CELLS/uL
- BASOPHIL (120 h, time 5 day): 0%
- EOSINOPHIL (120 h, time 5 day): 0%
- ERYTHROCYTE COUNT (120 h, time 5 day): 6.07 x10E6/uL
- HEMATOCRIT (120 h, time 5 day): 37.33%
- HEMOGLOBIN (120 h, time 5 day): 14 G/DL
- LEUKOCYTE COUNT (120 h, time 5 day): 16.8 x10E3/uL
- LYMPHOCYTE (120 h, time 5 day): 89.67%
- MEAN CORPUSCULAR HEMOGLOBIN (120 h, time 5 day): 23.07 pg
- MEAN CORPUSCULAR HEMOGLOBIN CONCENTRATION (120 h, time 5 day): 37.53 G/DL
- MEAN CORPUSCULAR VOLUME (120 h, time 5 day): 61.5 fL
- MONOCYTE (120 h, time 5 day): 3.67%
- NEUTROPHIL (120 h, time 5 day): 6.67%
- NUCLEATED RED BLOOD CELLS (120 h, time 5 day): 0 /100WBC
- PLATELET COUNT (120 h, time 5 day): 1413.33 x10E3/uL
- ALANINE AMINOTRANSFERASE (120 h, time 5 day): 57.67 u/L
- ALBUMIN (120 h, time 5 day): 4.2 G/DL
- ALKALINE PHOSPHATASE (120 h, time 5 day): 351.33 u/L
- ASPARTATE AMINOTRANSFERASE (120 h, time 5 day): 77 u/L
- BLOOD UREA NITROGEN (120 h, time 5 day): 17.67 mg/dL
- CARBON DIOXIDE (120 h, time 5 day): 27.33 mmol/L
- CHLORIDE (120 h, time 5 day): 103.67 MEQ/L
- CHOLESTEROL (120 h, time 5 day): 102.33 mg/dL
- CREATINE PHOSPHOKINASE (120 h, time 5 day): 250.67 u/L
- CREATININE (120 h, time 5 day): 0.22 mg/dL
- GLUCOSE (120 h, time 5 day): 153 mg/dL
- LACTATE DEHYDROGENASE (120 h, time 5 day): 208.67 u/L
- LIPASE (120 h, time 5 day): 12.33 u/L
- PHOSPHORUS (120 h, time 5 day): 13.13 mg/dL
- POTASSIUM (120 h, time 5 day): 7.47 MEQ/L
- SODIUM (120 h, time 5 day): 145.47 MEQ/L
- TOTAL BILIRUBIN (120 h, time 5 day): 0.17 mg/dL
- TOTAL PROTEIN (120 h, time 5 day): 6.33 G/DL
- URIC ACID (120 h, time 5 day): 2.3 mg/dL
